In general, MIC refers to the least concentration at which growth counts as inhibited.

What all share (type): functional
The subject of assay [1] is Bacillus subtilis. Briefly: Antimicrobial activity against Bacillus subtilis ATCC9372 assessed as growth inhibition after 24 hrs by microdilution assay. (In general: In broth dilution the organism is exposed to a series of concentrations in liquid medium.)
Assay [2] relates to Staphylococcus epidermidis. The experiment in a line: Antimicrobial activity against Staphylococcus epidermis CCM628 assessed as growth inhibition after 24 hrs by microdilution assay.
In assay [3] the test system is Candida albicans. The experiment in a line: Antimicrobial activity against Candida albicans SC5314 assessed as growth inhibition after 24 hrs by microdilution assay.
Assay [4] has as its system Escherichia coli. Briefly: Antimicrobial activity against Escherichia coli ATCC35218 assessed as growth inhibition after 24 hrs by microdilution assay.
Assay [5] concerns Staphylococcus aureus. The experiment in a line: Antimicrobial activity against Staphylococcus aureus ATCC12715 assessed as growth inhibition after 24 hrs by microdilution assay.

Converted amounts (≈) assume the structure as drawn.

Take `C[C@@H]1[C@H](O)[C@@H](C)/C=C/C=C/C=C/C=C/C=C/C=C/C=C/[C@H](O[C@@H]2O[C@H](C)[C@@H](O)[C@H](N)[C@@H]2O)C[C@@H]2O[C@](O)(C[C@@H](O)C[C@@H](O)[C@H](O)CC[C@@H](O)C[C@@H](O)CC(=O)O[C@H]1C)C[C@H](O)[C@H]2C(=O)O` [AMPHOTERICIN B]: the minimal inhibitory concentration (MIC) in assay [1] is > 64 µg/mL; in assay [2], > 64 µg/mL; in assay [3], 0.25 µg/mL (≈ 0.271 µM); in assay [4] it was > 64 µg/mL; in assay [5], > 64 µg/mL.

`C=C(NC(=O)c1csc([C@H]2CC[C@]34NC(=O)C(=C)NC(=O)C(=C)NC(=O)C(=C)NC(=O)[C@H](C)N[C@@H]5C=Cc6c([C@H](C)O)cc(nc6[C@H]5O)C(=O)O[C@H](C)[C@H](NC(=S)c5csc(n5)[C@H]([C@@](C)(O)[C@H](C)O)NC(=O)[C@H]5CSC(=N5)/C(=C/C)NC(=O)[C@H]([C@@H](C)O)NC(=O)c5csc3n5)c3nc(cs3)[C@H]4N2)n1)C(N)=O`: the MIC was 1 µg/mL (≈ 0.638 µM) in assay [1]; 0.5 µg/mL (≈ 0.319 µM) in assay [2]; > 64 µg/mL in assay [3]; > 64 µg/mL in assay [4]; 2 µg/mL (≈ 1.28 µM) in assay [5].

As to `C=C(NC(=O)C(=C)NC(=O)c1csc([C@H]2CC[C@]34NC(=O)C(=C)NC(=O)C(=C)NC(=O)C(=C)NC(=O)[C@H](C)N[C@@H]5C=Cc6c([C@H](C)O)cc(nc6[C@H]5O)C(=O)O[C@H](C)[C@H](NC(=S)c5csc(n5)[C@H]([C@@](C)(O)[C@H](C)O)NC(=O)[C@H]5CSC(=N5)/C(=C/C)NC(=O)[C@H]([C@@H](C)O)NC(=O)c5csc3n5)c3nc(cs3)[C@H]4N2)n1)C(=O)O`, the minimum inhibitory concentration (MIC) in assay [1] was 0.25 µg/mL (≈ 0.153 µM); in assay [2], 0.25 µg/mL (≈ 0.153 µM); in assay [3], > 64 µg/mL; in assay [4] it was > 64 µg/mL; in assay [5], 0.5 µg/mL (≈ 0.305 µM).

Consider `C=C(NC(=O)C(=C)NC(=O)c1csc([C@H]2CC[C@]34NC(=O)C(=C)NC(=O)C(=C)NC(=O)C(=C)NC(=O)[C@H](C)N[C@@H]5C=Cc6c([C@H](C)O)cc(nc6[C@H]5O)C(=O)O[C@H](C)[C@H](NC(=O)c5csc(n5)[C@H]([C@@](C)(O)[C@H](C)O)NC(=O)[C@H]5CSC(=N5)/C(=C/C)NC(=O)[C@H]([C@@H](C)O)NC(=O)c5csc3n5)c3nc(cs3)[C@H]4N2)n1)C(=O)O`, for which the minimum inhibitory concentration (MIC) in assay [1] is 8 µg/mL (≈ 4.93 µM); in assay [2], 2 µg/mL (≈ 1.23 µM); in assay [3], > 64 µg/mL; in assay [4] it was > 64 µg/mL; in assay [5], 8 µg/mL (≈ 4.93 µM).

On to `C=C(NC(=O)C(=C)NC(=O)c1csc(C2=N[C@@H]3c4csc(n4)[C@H]4NC(=O)c5csc(n5)[C@H]([C@@](C)(O)[C@H](C)O)NC(=O)[C@H]5CSC(=N5)/C(=C/C)NC(=O)[C@H]([C@@H](C)O)NC(=O)c5csc(n5)[C@]3(CC2)NC(=O)[C@H](C)NC(=O)C(=C)NC(=O)[C@H](C)NC(=O)[C@H]([C@@H](C)CC)N[C@@H]2C=Cc3c([C@H](C)O)cc(nc3[C@H]2O)C(=O)O[C@@H]4C)n1)C(N)=O`, for which the MIC was 0.06 µg/mL (≈ 0.036 µM) in assay [1]; < 0.01 µg/mL in assay [2]; > 64 µg/mL in assay [3]; > 64 µg/mL in assay [4]; 0.06 µg/mL (≈ 0.036 µM) in assay [5].

Consider `O=C(O)c1cn(C2CC2)c2cc(N3CCNCC3)c(F)cc2c1=O` [CIPROFLOXACIN], for which the minimum inhibitory concentration (MIC) in assay [1] is 0.06 µg/mL (≈ 0.181 µM); in assay [2] it was 0.06 µg/mL (≈ 0.181 µM); in assay [3] it was > 64 µg/mL; in assay [4], < 0.01 µg/mL; in assay [5], 0.06 µg/mL (≈ 0.181 µM).

As for `C=C1NC(=O)C(=C)NC(=O)[C@H](C)N[C@@H]2C=Cc3c([C@H](C)O)cc(nc3[C@H]2O)C(=O)O[C@H](C)[C@@H]2NC(=S)c3csc(n3)[C@H]([C@@](C)(O)[C@H](C)O)NC(=O)[C@H]3CSC(=N3)/C(=C/C)NC(=O)[C@H]([C@@H](C)O)NC(=O)c3csc(n3)[C@]3(CC[C@H](c4nc(C(N)=O)cs4)N[C@@H]3c3csc2n3)NC(=O)C(=C)NC1=O`, the minimal inhibitory concentration (MIC) in assay [1] is 1 µg/mL (≈ 0.667 µM); in assay [2] it was 0.5 µg/mL (≈ 0.334 µM); in assay [3], > 64 µg/mL; in assay [4] it was > 64 µg/mL; in assay [5] it was 1 µg/mL (≈ 0.667 µM).

For the origin of these results see ChEMBL document CHEMBL4842307, “Targeted Isolation of Saalfelduracin B-D from Amycolatopsis saalfeldensis Using LC-MS/MS-Based Molecular Networking” (2021).
